# Measurements as given in paper PMC11181322, “Copper(II) Complexes with Isomeric Morpholine-Substituted 2-Formylpyridine Thiosemicarbazone Hybrids as Potential Anticancer Drugs Inhibiting Both Ribonucleotide Reductase and Tubulin Polymerization: The Morpholine Position Matters” (Journal of Medicinal Chemistry, 2024).
# What was measured:
# [1] = pKa of the copper(II) complexes (UV–vis / pH-potentiometric titrations); conditions: 30% (v/v) DMSO/H2O, 25 °C
# Procedure: The solution speciation of copper(II) complexes with H2L^3–H2L^6 was studied primarily by UV–vis spectrophotometric titrations in a 30% (v/v) DMSO/H2O solvent mixture as a function of pH.
# An Agilent Carry 8454 diode array spectrophotometer was used to record the UV–vis spectra in the interval 200–800 nm. The path length was 1 cm. Proton dissociation constants (pKa) of the proligands and complexes were calculated by the computer program PSEQUAD.[94] Spectrophotometric titrations were performed on samples containing the proligands at a 50–100 μM concentration with a KOH solution in the presence of 0.1 M KCl at 25.0 ± 0.1 °C in the pH range from 2 to 11.5 in a 30% (v/v) DMSO/H2O solvent mixture, and the metal-to-ligand ratios were 1:0, 1:1, and 1:2. An Orion 710A pH meter equipped with a Metrohm combined electrode (type 6.0234.100) and a Metrohm 665 Dosimat buret were used for the titrations. […] Ar was also passed over the solutions during the titrations. Measurements were carried out in the range ca. 1.0–2.0 by preparing individual samples, in which KCl was partially or completely replaced by HCl, and pH values were calculated from the strong acid content. The conditional stability constants (K′) of the copper(II) complexes were calculated at pH 5.90 based on the spectral changes via the displacement reaction with EDTA in the presence 50 mM MES and 0.1 M KCl in water or in 30% (v/v) DMSO/H2O. In the competition experiments, the samples contained 25 μM copper(II) and 25 μM proligand, and the concentration of EDTA was varied from 0 to 400 μM. The conditional stability constants of the metal complexes (K′) and the individual spectra of the species were calculated by the computer program PSEQUAD.[94]
# [2] = Conditional stability constants of the copper(II) complexes by EDTA displacement (UV–vis); assay type: physicochemical; conditions: for logK′5.9 (DMSO/H2O) / logK′5.9 (H2O): EDTA displacement, UV–vis, 25 °C; for logK′5.9 (DMSO/H2O): pH 5.9, 30% (v/v) DMSO/H2O; for logK′5.9 (H2O): pH 5.9, water, I = 0.1 M (KCl); for pCu5.9 (=–log[Cu(II)]): calcd. at pH 5.9, cL = cCu(II) = 1 μM
# Procedure: The stability constants of 3–6 were determined by EDTA competition experiments monitored by UV–vis spectrophotometry at pH 5.9, where the [Cu(HL)]^+ species is dominant. Since the displacement of the TSC ligand by EDTA is relatively slow, a 2 h reaction time was used to reach equilibrium. Upon increasing the concentration of EDTA, the absorbance of the characteristic S → Cu charge transfer band at 400–416 nm decreased (see, for example, Figure 3 for the copper(II)–H2L^4 (1:1) system).[68] The experiments were performed in both aqueous solution and the 30% (v/v) DMSO/H2O solvent mixture. The determined conditional (apparent) formation constants (log K′5.9) are rather similar (see Table 2) in both media. However, the values are lower in the DMSO/H2O solvent mixture than in aqueous solution, presumably due to coordination of DMSO to copper(II). An analogous observation was reported for the copper(II) complex of Triapine.[67] […] To compare the copper(II) binding ability of the studied TSCs H2L^3–H2L^6 at pH 5.9 (at which the conditional constants were determined), pCu (−log [Cu(II)]) values were also computed using the experimentally determined equilibrium constants (Table 2). The higher pCu value indicates a stronger metal ion binding ability of the ligand under given circumstances. The ligands form complexes with fairly similar stability, in agreement with the conditional stability constants. […] A similar behavior was reported for aqueous solutions of the N-terminally dimethylated derivative of the 2-pyridinecarboxaldehyde TSC (PTSC)[69] and for the corresponding morpholine-hybrid Morph-dm-FTSC.[52] In particular, the calculated pCu values were also very close, 13.17 for PTSC vs 13.08 for Morph-dm-FTSC calculated at pH 7.4.
# The path length was 1 cm.
# [3] = system: MES-SA cells; assay: Cell cycle analysis, MES-SA; assay type: cell-based, human; conditions: for G0/G1 / G2/M / S: MES-SA
# Procedure: (§1) Cell cycle arrest in S-phase has been observed for Triapine analogues at concentrations ranging from 0.25 to 5.0 μM,[82],[83] in line with a mechanism of action relying on RNR inhibition.
# (§2) Figure S18. Cell cycle arrest for (a) proligand H2L4 and (b) complex 4 in MES-SA cells, as
# (§3) well as for (c) proligand H2L4 and (d) complex 4 in the MES-SA/Dx5 cancer cell line.
# (§4) Table S4. Cell cycle arrest for proligand H2L4 and complex 4 in the MES-SA and MES-
# (§5) SA/Dx5 cancer cell lines.
# (§6) H2L4 (MES-SA) H2L4 (MES-SA/Dx5) complex 4 (MES-SA) complex 4 (MES-SA/Dx5)
# (§7) Table S5. Cell cycle arrest for proligand H2L6 and complex 6 in the MES-SA and MES-
# (§8) H2L6 (MES-SA) H2L6 (MES-SA/Dx5) complex 6 (MES-SA) complex 6 (MES-SA/Dx5)
# (§9) (1 picture or pasted object on this page, not shown here)
# [4] = system: MES-SA/Dx5 cells; assay: Cell cycle analysis, MES-SA/Dx5; assay type: cell-based, human
# Procedure: as §1, §2, §3, §4, §5, §6, §7, §8, §9
# [5] = system: MES-SA/Dx5 cells; assay: Intracellular ROS generation, DCF-DA assay, MES-SA/Dx5; assay type: cell-based, human; conditions: 25 μM, 4 h treatment
# Procedure: (§10) ROS accumulation was evaluated in both the MES-SA and MES-SA/Dx5 cell lines by using 2′,7′-dichlorodihydrofluorescein diacetate (H2DCF-DA) as a probe. This compound enters the cells by passive diffusion, and after oxidation, it is converted to the highly fluorescent 2′,7′-dichlorofluorescein (DCF), enabling the estimation of intracellular ROS levels. ROS generation was measured after a 4 h treatment with 25 μM H2L^6 or 6; tert-butylhydroperoxide (TBHP, 25 μM) was used as a positive control.
# (§11) Figure 6 Intracellular ROS generation measured by the DCF-DA assay in MES-SA (filled bars) and MES-SA/Dx5 (lattice bars) cells, after a 4 h treatment with the indicated compounds at 25 μM: H2L^6 (gray), complex 6 (yellow), Triapine (green), and TBHP (brown). Values indicate fold change relative to the fluorescence of the cells treated with fluorescent probe alone (orange bars), following normalization to the initial fluorescence at the beginning of the incubation. Paired t test to the medium control was calculated; […]; **P < 0.01. Values were calculated from at least three independent experiments.
# (§12) The human uterine sarcoma cell lines MES-SA and the doxorubicin selected MES-SA-Dx5 were obtained from ATCC (MES-SA: No. CRL-1976, MES-SA/Dx5: No. CRL-1977) and were used for the intracellular ROS generation studies. […]
# [6] = system: MES-SA cells; assay: Intracellular ROS generation, DCF-DA assay, MES-SA; assay type: cell-based, human; conditions: 25 μM, 4 h treatment
# Procedure: as §10, §11, §12
# [7] = cell line not given (figures: MES-SA and MES-SA/Dx5)
SMILES,pKa[Cu(H2L)]2+ ([1]; UV–vis spectrophotometry),pKa[Cu(H2L)]2+ ([1]; pH potentiometry),logK′5.9 (DMSO/H2O) [2],logK′5.9 (H2O) [2],pCu5.9 (=–log[Cu(II)]) [2],G0/G1 ([3]; 2 µM),G2/M ([3]; 2 µM),S ([3]; 2 µM),G0/G1 ([3]; 4 µM),G2/M ([3]; 4 µM),S ([3]; 4 µM),G0/G1 ([3]; 8 µM),G2/M ([3]; 8 µM),S ([3]; 8 µM),"G0/G1 ([4]; MES-SA/Dx5, 2 µM)","G2/M ([4]; MES-SA/Dx5, 2 µM)","S ([4]; MES-SA/Dx5, 2 µM)","G0/G1 ([4]; MES-SA/Dx5, 4 µM)","G2/M ([4]; MES-SA/Dx5, 4 µM)","S ([4]; MES-SA/Dx5, 4 µM)",also measured
"Cc1cc(NC(=NN=Cc2cc(CN3CCOCC3)ccn2)[S][Cu][Cl])cc(C)c1O [complex 4, [Cu(HL^4)Cl]·1.5H2O]",4.48 ± 0.01,4.60 ± 0.02,10.07 ± 0.01,13.35 ± 0.02,8.06,63%,21%,16%,56%,25%,19%,50%,30%,20%,48%,32%,20%,43%,36%,21%,"cell cycle effect [3, 7]: gradually increased the G2/M ratio in a concentration-dependent manner; G0/G1 ([4]; MES-SA/Dx5, 8 µM): 47%; G2/M ([4]; MES-SA/Dx5, 8 µM): 36%; S ([4]; MES-SA/Dx5, 8 µM): 16%"
"Cc1cc(NC(=NN=Cc2ccc(CN3CCOCC3)cn2)[S][Cu][Cl])cc(C)c1O [complex 5, [Cu(HL^5)Cl]·2.5H2O]",4.75 ± 0.01,4.95 ± 0.04,9.99 ± 0.01,13.39 ± 0.01,8.02,,,,,,,,,,,,,,,,
"Cc1cc(NC(=NN=Cc2cccc(CN3CCOCC3)n2)[S][Cu][Cl])cc(C)c1O [complex 6, [Cu(HL^6)Cl]·H2O]",,,10.09 ± 0.04,13.73 ± 0.02,8.07,74%,17%,9%,35%,55%,11%,24%,68%,8%,53%,35%,12%,39%,48%,12%,"Intracellular ROS generation [5]: significant ROS induction; Intracellular ROS generation [6]: significant ROS induction; concentrations inducing G2/M-phase arrest [3, 7]: ≥ 4 µM; G0/G1 ([4]; MES-SA/Dx5, 8 µM): 21%; G2/M ([4]; MES-SA/Dx5, 8 µM): 68%; S ([4]; MES-SA/Dx5, 8 µM): 11%"
